From patent US7495018B2, “Substituted 1,3-thiazole compounds, their production and use” (Takeda Pharmaceutical Company Limited, priority 2000, dated 2009)

| Structure (SMILES) | melting point |
| --- | --- |
| Cc1cccc(-c2nc(-c3ccc(F)cc3)sc2-c2ccnc(N)c2)c1 [Example Compound 18-1, 4-[2-(4-fluorophenyl)-4-(3-methylphenyl)-1,3-thiazol-5-yl]-2-pyridylamine] | 160 to 162 °C |
| Cc1cccc(-c2nc(CC(F)(F)F)sc2-c2ccnc(N)c2)c1 [Example Compound 18-3, 4-[4-(3-methylphenyl)-2-(2,2,2-trifluoroethyl)-1,3-thiazol-5-yl]-2-pyridylamine] | 131 to 132 °C |
| CCCc1nc(-c2cccc(C)c2)c(-c2ccnc(N)c2)s1 [Example Compound 18-4, 4-[4-(3-methylphenyl)-2-propyl-1,3-thiazol-5-yl]-2-pyridylamine] | 113 to 115 °C |
| CCOC(=O)Cc1nc(-c2cccc(C)c2)c(-c2ccnc(N)c2)s1 [Example Compound 18-5, Ethyl [5-(2-amino-4-pyridyl)-4-(3-methylphenyl)-1,3-thiazol-2-yl]acetate] | 128 to 129 °C |
| CCOC(=O)c1nc(-c2cccc(C)c2)c(-c2ccnc(N)c2)s1 [Example Compound 18-6, Ethyl [5-(2-amino-4-pyridyl)-4-(3-methylphenyl)-1,3-thiazol-2-yl]carboxylate] | 147 to 148 °C |
| CCc1nc(-c2cccc(Cl)c2)c(-c2ccnc(N)c2)s1 [Example Compound 20-1, 4-[2-ethyl-4-(3-chlorophenyl)-1,3-thiazol-5-yl]-2-pyridylamine] | 132 to 133 °C |
| CCc1nc(-c2ccccc2)c(-c2ccnc(N)c2)s1 [Example Compound 20-2, 4-(2-ethyl-4-phenyl-1,3-thiazol-5-yl)-2-pyridylamine] | 158 to 159 °C |
| CCc1nc(-c2ccc(F)cc2)c(-c2ccnc(N)c2)s1 [Example Compound 20-3, 4-[2-ethyl-4-(4-fluorophenyl)-1,3-thiazol-5-yl]-2-pyridylamine] | 140 to 141 °C |
| CCc1nc(-c2cccc(C(F)(F)F)c2)c(-c2ccnc(N)c2)s1 [Example Compound 20-4, 4-[2-ethyl-4-[3-(trifluoromethyl)phenyl]-1,3-thiazol-5-yl]-2-pyridylamine] | 117 to 118 °C |
| CCc1nc(-c2ccc(SC)cc2)c(-c2ccnc(N)c2)s1 [Example Compound 20-5, 4-[2-ethyl-4-[4-(methylthio)phenyl]-1,3-thiazol-5-yl]-2-pyridylamine] | 119 to 120 °C |
| CCc1nc(-c2cccc(F)c2)c(-c2ccnc(N)c2)s1 [Example Compound 20-6, 4-[2-ethyl-4-(3-fluorophenyl)-1,3-thiazol-5-yl]-2-pyridylamine] | 153 to 154 °C |
| CCc1nc(-c2ccc(Cl)cc2)c(-c2ccnc(N)c2)s1 [Example Compound 20-7, 4-[4-(4-chlorophenyl)-2-ethyl-1,3-thiazol-5-yl]-2-pyridylamine] | 136 to 137 °C |
| CCc1cccc(-c2nc(CC)sc2-c2ccnc(N)c2)c1 [Example Compound 20-8, 4-[2-ethyl-4-(3-ethylphenyl)-1,3-thiazol-5-yl]2-pyridylamine] | 128 to 129 °C |
| CCc1nc(-c2ccc(F)c(C)c2)c(-c2ccnc(N)c2)s1 [Example Compound 20-9, 4-[2-ethyl-4-(4-fluoro-3-methylphenyl)-1,3-thiazol-5-yl]-2-pyridylamine] | 134 to 135 °C |
| CCc1nc(-c2cccc(C(C)C)c2)c(-c2ccnc(N)c2)s1 [Example Compound 20-10, 4-[2-ethyl-4-[3-(1-methylethyl)phenyl]-1,3-thiazol-5-yl]-2-pyridylamine] | 80 to 81 °C |
| CCCc1cccc(-c2nc(CC)sc2-c2ccnc(N)c2)c1 [Example Compound 20-11, 4-[2-ethyl-4-(3-propylphenyl)-1,3-thiazol-5-yl]-2-pyridylamine] | 72 to 74 °C |
| CCc1nc(-c2cccs2)c(-c2ccnc(N)c2)s1 [Example Compound 20-12, 4-[2-ethyl-4-(2-thienyl)-1,3-thiazol-5-yl]-2-pyridylamine] | 159 to 160 °C |
| CCCc1nc(-c2cccc(Cl)c2)c(-c2ccnc(N)c2)s1 [Example Compound 21-1, 4-[4-(3-chlorophenyl)-2-propyl-1,3-thiazol-5-yl]-2-pyridylamine] | 99 to 100 °C |
| CCOC(=O)Cc1nc(-c2cccc(Cl)c2)c(-c2ccnc(N)c2)s1 [Example Compound 21-2, Ethyl [5-(2-amino-4-pyridyl)-4-(3-chlorophenyl)-1,3-thiazol-2-yl]acetate] | 154 to 155 °C |
| Cc1cccc(-c2nc(C)sc2-c2ccnc(N)c2)c1 [Example Compound 23-1, 4-[2-methyl-4-(3-methylphenyl)-1,3-thiazol-5-yl]-2-pyridylamine] | 152 to 153 °C |
| CSc1ccc(-c2nc(-c3cccc(C)c3)c(-c3ccnc(N)c3)s2)cc1 [Example Compound 23-2, 4-[4-(3-methylphenyl)-2-[4-(methylthio)phenyl]-1,3-thiazol-5-yl]-2-pyridylamine] | 181 to 183 °C |

| Structure (SMILES) | melting point |
| --- | --- |
| COc1ccc(-c2nc(C)sc2-c2ccnc(N)c2)cc1 [Example Compound 23-3, 4-[4-(4-methoxyphenyl)-2-methyl-1,3-thiazol-5-yl]-2-pyridylamine] | 140 to 141 °C |
| Cc1cccc(-c2nc(C(=O)O)sc2-c2ccnc(N)c2)c1 [Example Compound 25-1, 5-(2-amino-4-pyridyl)-4-(3-methylphenyl)-1,3-thiazole-2-carboxylic acid] | 156 to 157 °C |
| Cc1cccc(-c2nc(C(=O)O)sc2-c2ccnc(C)c2)c1 [Example Compound 25-2, 5-(2-methyl-4-pyridyl)-4-(3-methylphenyl)-1,3-thiazole-2-carboxylic acid] | 135 to 136 °C |
| Cc1cccc(-c2ncsc2-c2ccnc(N)c2)c1 [Example Compound 27-1, 4-[4-(3-methylphenyl)-1,3-thiazol-5-yl]-2-pyridylamine] | 91 to 92 °C |
| Cc1nc(-c2cccc(Cl)c2)c(-c2ccnc(N)c2)s1 [Example Compound 27-2, 4-[4-(3-chlorophenyl)-2-methyl-1,3-thiazol-5-yl]-2-pyridylamine] | 142 to 143 °C |
| CCc1nc(-c2cccc(C)c2)c(-c2ccnc(NC(=O)C3CCCC3)c2)s1 [Example Compound 29-1, N-[4-[2-ethyl-4-(3-methylphenyl)-1,3-thiazol-5-yl]-2-pyridyl]cyclopentanecarboxamide] | 123 to 125 °C |
| CC(=O)Nc1cc(-c2sc(C)nc2-c2cccc(Cl)c2)ccn1 [Example Compound 30-1, N-[4-[4-(3-chlorophenyl)-2-methyl-1,3-thiazol-5-yl]-2-pyridyl]acetamide] | 112 to 115 °C |
| CCc1nc(-c2cccc(Cl)c2)c(-c2ccnc(NC(C)=O)c2)s1 [Example Compound 30-2, N-[4-[4-(3-chlorophenyl)-2-ethyl-1,3-thiazol-5-yl]-2-pyridyl]acetamide] | 149 to 150 °C |
| CCCc1nc(-c2cccc(Cl)c2)c(-c2ccnc(NC(C)=O)c2)s1 [Example Compound 30-3, N-[4-[4-(3-chlorophenyl)-2-propyl-1,3-thiazol-5-yl]-2-pyridyl]acetamide] | 144 to 145 °C |
| CCc1nc(-c2cccs2)c(-c2ccnc(NC(C)=O)c2)s1 [Example Compound 30-4, N-[4-[2-ethyl-4-(2-thienyl)-1,3-thiazol-5-yl]-2-pyridyl]acetamide] | 154 to 155 °C |
| CSc1ccc(-c2nc(-c3cccc(Cl)c3)c(-c3ccnc(NC(C)=O)c3)s2)cc1 [Example Compound 30-5, N-[4-[4-(3-chlorophenyl)-2-[4-(methylthio)phenyl]-1,3-thiazol-5-yl]-2-pyridyl]acetamide] | 207 to 208 °C |
| CCC(=O)Nc1cc(-c2sc(C)nc2-c2cccc(Cl)c2)ccn1 [Example Compound 30-7, N-[4-[4-(3-chlorophenyl)-2-methyl-1,3-thiazol-5-yl]-2-pyridyl]propionamide] | 134 to 135 °C |
| CCC(=O)Nc1cc(-c2sc(CC)nc2-c2cccc(Cl)c2)ccn1 [Example Compound 30-8, N-[4-[4-(3-chlorophenyl)-2-ethyl-1,3-thiazol-5-yl]-2-pyridyl]propionamide] | 132 to 133 °C |
| CCCc1nc(-c2cccc(Cl)c2)c(-c2ccnc(NC(=O)CC)c2)s1 [Example Compound 30-9, N-[4-[4-(3-chlorophenyl)-2-propyl-1,3-thiazol-5-yl]-2-pyridyl]propionamide] | 103 to 104 °C |
| CCC(=O)Nc1cc(-c2sc(CC)nc2-c2cccs2)ccn1 [Example Compound 30-10, N-[4-[2-ethyl-4-(2-thienyl)-1,3-thiazol-5-yl]2-pyridyl]propionamide] | 187 to 188 °C |
| CCC(=O)Nc1cc(-c2sc(-c3ccc(SC)cc3)nc2-c2cccc(Cl)c2)ccn1 [Example Compound 30-11, N-[4-[4-(3-chlorophenyl)-2-[4-(methylthio)phenyl]-1,3-thiazol-5-yl]-2-pyridyl]propionamide] | 187 to 188 °C |
| CSc1ccc(-c2nc(-c3cccc(Cl)c3)c(-c3ccnc(NC(=O)C(C)(C)C)c3)s2)cc1 [Example Compound 30-12, N-[4-[4-(3-chlorophenyl)-2-[4-(methylthio)phenyl]-1,3-thiazol-5-yl]-2-pyridyl]pivalamide] | 119 to 120 °C |
| CCc1nc(-c2cccc(C)c2)c(-c2ccnc(NCC3CCCC3)c2)s1 [Example Compound 32, N-(cyclopentylmethyl)-4-[2-ethyl-4-(3-methylphenyl)-1,3-thiazol-5-yl]-2-pyridylamine] | 67 to 69 °C |
| Cc1cccc(-c2nc(N)sc2-c2ccnc(N3CCOCC3)c2)c1 [Example Compound 34-1, [4-(3-methylphenyl)-5-(2-morpholino-4-pyridyl)-1,3-thiazol-2-yl]amine] | 188 to 189 °C |
| Cc1cccc(-c2nc(N)sc2-c2ccnc(NC3CCCCC3)c2)c1 [Example Compound 34-2, [5-(2-cyclohexylamino-4-pyridyl)-4-(3-methylphenyl)-1,3-thiazol-2-yl]amine] | 168 to 169 °C |
| Cc1cccc(-c2nc(N)sc2-c2ccnc(NC3CCCC3)c2)c1 [Example Compound 34-3, [5-(2-cyclopentylamino-4-pyridyl)-4-(3-methylphenyl)-1,3-thiazol-2-yl]amine] | 169 to 170 °C |
